In US12180192B2, “Modulators of THR-β and methods of use thereof” (ALIGOS THERAPEUTICS, INC., priority 2019, dated 2024):
Like-named read-outs stand apart in the source and are kept apart here.

How the values were obtained:
Assay type in all cases: cell-based
[1] = tested on: CPT1A gene expression in Huh-7 cells; experiment: Huh-7 differential gene expression, CPT1A RT-qPCR (Assay 3); details: Table 6, Huh-7 cells, CPT1A, 24 hr treatment; for EC50: read-out: Activity category Assay 3 EC50; for Emax: read-out: Activity category Assay 3 Emax
Description: Huh-7 Differential Gene Expression (Assay 3)
Fetal bovine serum (FBS) was incubated with washed resin (50 mg resin/mL FBS; resin weight is dry weight of resin prior to washing) for 5 hr at room temperature on a rotor. The FBS was separated from the resin via centrifugation and incubated with new, washed resin for 18 h at room temperature on a rotor.
Cell Culture and Drug Treatment
Huh-7 cells were cultured in DMEM (10-013-CM, Corning) supplemented with 10% FBS and 1% Pen-Strep at 37° C. under 5% C02. When 70-80% confluence was reached, the cells were removed by trypsinization. The medium was aspirated from the cell culture dish, the cell monolayer was washed with 1×PBS, and 0.05% trypsin, 0.53 mM EDTA (25-052-CV, Corning) solution was added to the dish. After 3 min incubation, the cells were detached completely by repeatedly pipetting solution onto the monolayer. Equal volume of DMEM supplemented with 10% rFBS and 1% Pen-Strep (TH-depleted DMEM) was added to the dish to inactivate the trypsin. The cell suspension was centrifuged at 350×g at room temperature for 3 min. The supernatant was aspirated out and the cell pellet was resuspended in TH-depleted DMEM. […] After 24 hr incubation, the media was replaced with treatment media. All compounds were serially diluted in DMSO and final concentrations were reached by dilution in TH-depleted DMEM (0.1% DMSO). The cells were incubated in treatment media for 24 hr. Treatments were performed in biological duplicates.
After 24 hr in treatment media, the cells were lysed directly on the culture plates and cDNA was produced using the TaqMan™ Fast Advanced Cells-to-CT™ Kit (A35374, Invitrogen) and following the manufacturer's protocol. RT-qPCR for CPT1A (Hs00912671_m1) and two housekeeping genes, ACTB (Hs01060665_g1) and TFG (Hs02832013_g1), was performed using TaqMan™ Fast Advanced Master Mix. RT-qPCR reactions were run on the qTOWER^3 84 G (Analytik Jena) in technical duplicates.
ΔRn values were obtained from the qPCRsoft384 1.0 software and CPT1A gene expression was quantified via the 2-ΔΔCt method. Dose-response curves were generated using GraphPad Prism 8 using four parameter logistic equation without top constraint to derive EC50 and Emax.

THR alpha = molecular target: T1, THR alpha (Homo sapiens, UniProt P10827); experiment: HEK293T THR alpha/RXR luciferase reporter assay (Assay 2); details: for Emax: HEK-293T
T1 construct: expressed in transfected cells; host or cells: HEK293T (ATCC CRL-3216)
T1 sequence (P10827 1-410 isoform P10827-2): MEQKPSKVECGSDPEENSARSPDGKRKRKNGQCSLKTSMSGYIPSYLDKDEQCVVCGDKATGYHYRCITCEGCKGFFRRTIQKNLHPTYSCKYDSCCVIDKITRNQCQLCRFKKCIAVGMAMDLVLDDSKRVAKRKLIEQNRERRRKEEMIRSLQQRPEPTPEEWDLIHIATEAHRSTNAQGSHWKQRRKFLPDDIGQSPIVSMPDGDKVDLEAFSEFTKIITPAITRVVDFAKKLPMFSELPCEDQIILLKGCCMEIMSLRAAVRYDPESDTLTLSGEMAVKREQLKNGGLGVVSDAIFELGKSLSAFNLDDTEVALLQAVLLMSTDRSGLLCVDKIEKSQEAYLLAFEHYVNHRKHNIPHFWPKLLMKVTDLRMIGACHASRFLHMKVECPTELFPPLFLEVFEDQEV
T1 sequence (P19793 1-462 partner): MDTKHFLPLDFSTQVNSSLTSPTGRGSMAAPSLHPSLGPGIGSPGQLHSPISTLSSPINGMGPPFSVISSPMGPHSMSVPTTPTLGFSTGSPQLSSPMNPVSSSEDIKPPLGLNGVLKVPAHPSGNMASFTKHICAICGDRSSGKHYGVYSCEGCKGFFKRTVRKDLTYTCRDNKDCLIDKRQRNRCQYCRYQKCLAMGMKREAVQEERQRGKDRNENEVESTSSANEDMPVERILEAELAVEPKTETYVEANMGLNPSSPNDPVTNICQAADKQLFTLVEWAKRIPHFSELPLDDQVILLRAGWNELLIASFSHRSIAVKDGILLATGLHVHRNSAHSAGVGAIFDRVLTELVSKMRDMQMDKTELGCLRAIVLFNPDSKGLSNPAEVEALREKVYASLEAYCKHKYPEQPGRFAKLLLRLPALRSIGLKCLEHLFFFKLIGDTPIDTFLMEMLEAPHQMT
Procedure, shortened: (§1)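 HEK293T cells transiently transfected with TRE-luciferase reporter, RXR, and THR alpha or THR beta plasmid; ten five-fold compound dilutions from DMSO added for 18-24 h. One-Glo luminescence read; percent agonism normalized between negative and positive controls.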

THR beta = molecular target: T2, THR beta (Homo sapiens, UniProt P10828); experiment: HEK293T THR beta/RXR luciferase reporter assay (Assay 2); details: for Emax: HEK-293T
T2 construct: expressed in transfected cells; host or cells: HEK293T (ATCC CRL-3216)
T2 sequence (P10828 1-461): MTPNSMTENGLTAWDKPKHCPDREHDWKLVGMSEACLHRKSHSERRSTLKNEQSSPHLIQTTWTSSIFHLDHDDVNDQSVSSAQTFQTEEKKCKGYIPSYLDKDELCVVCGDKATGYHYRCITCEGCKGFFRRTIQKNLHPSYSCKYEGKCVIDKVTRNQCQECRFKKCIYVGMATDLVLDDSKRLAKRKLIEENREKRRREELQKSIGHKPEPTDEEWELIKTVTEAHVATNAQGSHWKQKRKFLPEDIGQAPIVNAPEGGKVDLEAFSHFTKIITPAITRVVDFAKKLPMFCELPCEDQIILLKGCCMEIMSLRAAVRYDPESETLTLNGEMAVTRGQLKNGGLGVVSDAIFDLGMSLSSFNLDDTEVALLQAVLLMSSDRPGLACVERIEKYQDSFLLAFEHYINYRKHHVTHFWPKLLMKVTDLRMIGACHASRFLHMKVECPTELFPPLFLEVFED
T2 sequence (P19793 1-462 partner): T1 sequence (P19793 1-462 partner)
Procedure, shortened: as §1

[2] = Table 5, Assay 2, THRα, read-out: Activity category Assay 2 THRα (Emax)
[3] = Table 4, THR-alpha, Assay 2, read-out: Activity category Assay 2 (EC50, THR-alpha agonist activity)
[4] = Table 5, Assay 2, THRβ, read-out: Activity category Assay 2 THRβ (Emax)
[5] = THR-beta, HEK293T reporter assay, read-out: Activity category Assay 2 (EC50, THR-beta agonist)

## CC(c1cc(Oc2c(Cl)cc(-n3nc(N)c(=O)[nH]c3=O)cc2Cl)n[nH]c1=O)C1CC(F)(F)C1 (single isomer, unassigned) [Compound 61-A, 6-amino-2-[3,5-dichloro-4-([5-[1-(3,3-difluorocyclobutyl)ethyl]-6-oxo-1H-pyridazin-3-yl]oxy)phenyl]-4H-1,2,4-tri-azine-3,5-dione]
[1]; Homo sapiens, Huh-7, 24 h
  EC50: < 100 nM
[1]
  Activity category Assay 3 Emax: B (Emax≥50%, and <75%)
THR alpha; [2]
  Emax: 50 to 75%
THR alpha; [3]
  EC50: 50 to 250 nM
THR beta; [4]
  Emax: > 75%
THR beta; [5]
  EC50: < 50 nM

## CC(c1cc(Oc2c(Cl)cc(-n3nc(N)c(=O)[nH]c3=O)cc2Cl)n[nH]c1=O)C1CC(F)(F)C1 (single isomer, unassigned) [Compound 61-B, 6-amino-2-[3,5-dichloro-4-([5-[1-(3,3-difluorocyclobutyl)ethyl]-6-oxo-1H-pyridazin-3-yl]oxy)phenyl]-4H-1,2,4-tri-azine-3,5-dione]
[1]
  Activity category Assay 3 Emax: A (Emax≥75%)
  EC50: > 100 nM
THR alpha; [3]
  EC50: 250 to 1000 nM
THR alpha; Table 5, Assay 2, THRα
  Activity category Assay 2 THRα (Emax): C (Emax<50%)
THR beta; [5]
  EC50: 250 to 1000 nM
THR beta; Table 5, Assay 2, THRβ
  Activity category Assay 2 THRβ (Emax): A (Emax≥75%)

## C[C@H]1C[C@H](c2cc(Oc3c(Cl)cc(-n4nc(N)c(=O)[nH]c4=O)cc3Cl)n[nH]c2=O)C1 (single isomer, unassigned) [Compound 86-A, 6-Amino-2-(3,5-dichloro-4-((5-((1r,3r)-3-methylcyclobutyl)-6-oxo-1,6-dihydropyridazin-3-yl)oxy)phenyl)-1,2,4-triazine-3,5(2H,4H)-dione]
[1]; Homo sapiens, Huh-7, 24 h
  EC50: < 100 nM
  Emax: 50 to 75%
THR alpha; [2]
  Emax: 50 to 75%
THR alpha; [3]
  EC50: 250 to 1000 nM
THR beta; [4]
  Emax: > 75%
THR beta; [5]
  EC50: 50 to 250 nM

## CC(c1ccccc1)c1cc(Oc2c(Cl)cc(-n3nc(N)c(=O)[nH]c3=O)cc2Cl)n[nH]c1=O (single isomer, unassigned) [Compound 164, 6-Amino-2-(3,5-dichloro-4-((6-oxo-5-(1-phenylethyl)-1,6-dihydropyridazin-3-yl)oxy)phenyl)-1,2,4-triazine-3,5(2H,4H)-dione]
[1]; Homo sapiens, Huh-7, 24 h
  EC50: < 100 nM
  Emax: 50 to 75%
THR alpha; [2]
  Emax: 50 to 75%
THR alpha; [3]
  EC50: 250 to 1000 nM
THR beta; [4]
  Emax: > 75%

## CC(C)c1c[nH]c2ccc(Oc3c(Cl)cc(-n4nc(C#N)c(=O)[nH]c4=O)cc3Cl)cc12 [Compound 1, 2-[3,5-dichloro-4-[(3-isopropyl-1H-indol-5-yl)oxy]-phenyl]-3,5-dioxo-4H-1,2,4-tri-azine-6-carbonitrile]
[1]; Homo sapiens, Huh-7, 24 h
  EC50: 100 to 1000 nM
  Emax: > 75%
THR alpha; [2]
  Emax: > 75%
THR alpha; [3]
  EC50: 250 to 1000 nM
THR beta; [4]
  Emax: > 75%
THR beta; [5]
  EC50: 50 to 250 nM

## CC(C)c1cc(Oc2c(Cl)cc(-c3nn(C)c(=O)[nH]c3=O)cc2Cl)n[nH]c1=O [Compound 16, 6-[3,5-dichloro-4-[(5-isopropyl-6-oxo-1H-pyridazin-3-yl)oxy]phenyl]-2-methyl-4H-1,2,4-triazine-3,5-dione]
[1]; Homo sapiens, Huh-7, 24 h
  EC50: 100 to 1000 nM
  Emax: < 50%
THR alpha; [2]
  Emax: > 75%
THR alpha; [3]
  EC50: 250 to 1000 nM
THR beta; [4]
  Emax: > 75%
THR beta; [5]
  EC50: 50 to 250 nM

## CC(C)c1c[nH]c2ccc(Oc3c(Cl)cc(-n4nc(C#N)c(=O)[nH]c4=O)cc3Cl)nc12 [Compound 18]
[1]; Homo sapiens, Huh-7, 24 h
  EC50: > 100 nM
  Emax: > 75%
THR alpha; [2]
  Emax: 50 to 75%
THR alpha; [3]
  EC50: 1000 to 10000 nM
THR beta; [4]
  Emax: > 75%
THR beta; [5]
  EC50: 1000 to 10000 nM

## Cc1cc(-n2nc(C#N)c(=O)[nH]c2=O)cc(C)c1Cc1ccc2[nH]cc(C(C)C)c2n1 [Compound 31, 2-[4-[(3-isopropyl-1H-pyrrolo[3,2-b]pyridin-5-yl)methyl]-3,5-dimethyl-phenyl]-3,5-dioxo-1,2,4-triazine-6-carbonitrile]
[1]; Homo sapiens, Huh-7, 24 h
  EC50: 100 to 1000 nM
  Emax: > 75%
THR alpha; [2]
  Emax: > 75%
THR alpha; [3]
  EC50: 1000 to 10000 nM
THR beta; [4]
  Emax: > 75%
THR beta; [5]
  EC50: 250 to 1000 nM

## CCC(C)c1cc(Oc2c(Cl)cc(-n3nc(N)c(=O)[nH]c3=O)cc2Cl)n[nH]c1=O (centres unmarked) [Compound 39-A]
[1]
  Activity category Assay 3 Emax: B (Emax≥50%, and <75%)
  EC50: < 100 nM
THR alpha; [3]
  EC50: 50 to 250 nM
THR alpha; Table 5, Assay 2, THRα
  Activity category Assay 2 THRα (Emax): A (Emax≥75%)
THR beta; [5]
  EC50: 50 to 250 nM
THR beta; Table 5, Assay 2, THRβ
  Activity category Assay 2 THRβ (Emax): A (Emax≥75%)

## CCC(C)c1cc(Oc2c(Cl)cc(-n3nc(N)c(=O)[nH]c3=O)cc2Cl)n[nH]c1=O (centres unmarked) [Compound 39-B]
[1]
  Activity category Assay 3 Emax: A (Emax≥75%)
  EC50: < 100 nM
THR alpha; [3]
  EC50: < 50 nM
THR alpha; Table 5, Assay 2, THRα
  Activity category Assay 2 THRα (Emax): A (Emax≥75%)
THR beta; [5]
  EC50: < 50 nM
THR beta; Table 5, Assay 2, THRβ
  Activity category Assay 2 THRβ (Emax): A (Emax≥75%)

## Nc1nn(-c2cc(Cl)c(Oc3cc(C4CCC4)c(=O)[nH]n3)c(Cl)c2)c(=O)[nH]c1=O [Compound 40, 6-amino-2-[3,5-dichloro-4-[(5-cyclobutyl-6-oxo-1H-pyridazin-3-yl)oxy]phenyl]-4H-1,2,4-triazine-3,5-dione]
[1]; Homo sapiens, Huh-7, 24 h
  EC50: < 100 nM
  Emax: > 75%
THR alpha; HEK293T reporter THRalpha/RXR, read-out: EC50 α
  EC50: 564 nM
THR alpha; HEK293T reporter THRalpha/RXR, read-out: percent in parentheses below EC50 α (percent agonism / Emax)
  Emax: 95%
THR alpha; [2]
  Emax: > 75%
THR alpha; [3]
  EC50: 250 to 1000 nM
THR beta; HEK293T reporter THRbeta/RXR, read-out: EC50 β
  EC50: 58 nM
THR beta; HEK293T reporter THRbeta/RXR, read-out: percent in parentheses below EC50 β (percent agonism / Emax)
  Emax: 92%
THR beta; [4]
  Emax: > 75%
THR beta; [5]
  EC50: 50 to 250 nM

## Cc1cc(-n2nc(N)c(=O)[nH]c2=O)cc(C)c1Cc1ccc(O)c(-c2ccccc2)n1 [Compound 43, 6-amino-2-[4-[(5-hydroxy-6-phenylpyridin-2-yl)-methyl]-3,5-dimethylphenyl]-4H-1,2,4-triazine-3,5-dione]
[1]; Homo sapiens, Huh-7, 24 h
  EC50: < 100 nM
  Emax: > 75%
THR alpha; [2]
  Emax: > 75%
THR alpha; [3]
  EC50: < 50 nM
THR beta; [4]
  Emax: > 75%
